Tests used:
[1] = molecular target: Calcium-dependent protein kinase 1 (Plasmodium falciparum) (UniProt P62344); test: Binding affinity to wild-type Plasmodium falciparum full length CDPK1 (M1 to S524 residues) expressed in mammalian expression system assessed as residual binding level at 10 uM by Kinomescan method relative to control
[2] = molecular target: Glycogen synthase kinase-3 (Sus scrofa, UniProt B2LUN4+I6LNT8)
Description: Inhibition of native porcine brain GSK-3alpha/beta using GS-1 as substrate incubated for 30 mins in presence of [gamma-33P]ATP by liquid scintillation counting assay

[3] = system: Receptor-type tyrosine-protein kinase FLT3 (Homo sapiens), P36888 [D835Y]; test: Binding affinity to human partial length FLT3 D835Y mutant (Q580 to Y969 residues) expressed in bacterial expression system assessed as residual binding level at 10 uM by Kinomescan method relative to control
[4] = molecular target: Insulin-like growth factor 1 receptor (Homo sapiens) (UniProt P08069); test: Binding affinity to wild-type human partial length IGF1R (L972 to D1294 residues) expressed in bacterial expression system assessed as residual binding level at 10 uM by Kinomescan method relative to control
[5] = system: Tyrosine-protein kinase ABL1 (Homo sapiens), P00519 [Q252H]; test: Binding affinity to human non-phosphorylated ABL1 Q252H mutant (S229 to K512 residues) expressed in mammalian expression system assessed as residual binding level at 10 uM by Kinomescan method relative to control
[6] = molecular target: Ribosomal protein S6 kinase alpha-1 (Homo sapiens) (UniProt Q15418); test: Binding affinity to wild-type human partial length C-terminal RSK1 kinase domain 2 (P360 to L681 residues) expressed in bacterial expression system assessed as residual binding level at 10 uM by Kinomescan method relative to control
[7] = molecular target: Serine/threonine-protein kinase 32A (Homo sapiens) (UniProt Q8WU08); test: Binding affinity to wild-type human full length YANK1 (M1 to L396 residues) expressed in mammalian expression system assessed as residual binding level at 10 uM by Kinomescan method relative to control
[8] = molecular target: Aurora kinase C (Homo sapiens) (UniProt Q9UQB9); test: Binding affinity to wild-type human full length AURKC (M1 to S275 residues) expressed in bacterial expression system assessed as residual binding level at 10 uM by Kinomescan method relative to control
[9] = molecular target: Tyrosine-protein kinase HCK (Homo sapiens) (UniProt P08631); test: Binding affinity to wild-type human full length HCK (M22 to P526 residues) expressed in bacterial expression system assessed as residual binding level at 10 uM by Kinomescan method relative to control
[10] = molecular target: Serine/threonine-protein kinase N1 (Homo sapiens) (UniProt Q16512); test: Binding affinity to wild-type human partial length PKN1 (E598 to C948 residues) expressed in bacterial expression system assessed as residual binding level at 10 uM by Kinomescan method relative to control
MDR1 [11] = test: in vitro; conditions: dog, MDCK-MDR1
Description: Apparent permeability across basolateral to apical side in MDCK2-MDR1 cells by HPLC analysis

NCI-H727 = test: Cytotoxicity against human NCI-H727 cells assessed as growth inhibition incubated for 48 hrs by Hoechst 33342 staining based assay; assay type: cell-based; conditions: NCI-H727, 48 h
[12] = system: Proto-oncogene tyrosine-protein kinase receptor Ret (Homo sapiens), P07949 [V804M]; test: Binding affinity to human partial length RET V804M mutant (E713 to D1014 residues) expressed in bacterial expression system assessed as residual binding level at 10 uM by Kinomescan method relative to control
[13] = molecular target: Phosphorylase b kinase gamma catalytic chain, skeletal muscle/heart isoform (Homo sapiens) (UniProt Q16816); test: Binding affinity to wild-type human full length PHKG1 (M1 to Y387 residues) expressed in bacterial expression system assessed as residual binding level at 10 uM by Kinomescan method relative to control
[14] = molecular target: Calcium/calmodulin-dependent protein kinase kinase 2 (Homo sapiens) (UniProt Q96RR4); test: Binding affinity to wild-type human partial length CAMKK2 (D65 to V471 residues) expressed in bacterial expression system assessed as residual binding level at 10 uM by Kinomescan method relative to control
[15] = molecular target: Ephrin type-A receptor 4 (Homo sapiens) (UniProt P54764); test: Binding affinity to wild-type human partial length EPHA4 (T601 to R897 residues) expressed in bacterial expression system assessed as residual binding level at 10 uM by Kinomescan method relative to control
[16] = molecular target: Serine/threonine-protein kinase WNK1 (Homo sapiens) (UniProt Q9H4A3); test: Binding affinity to wild-type human partial length WNK1 (Q194 to A490 residues) expressed in mammalian expression system assessed as residual binding level at 10 uM by Kinomescan method relative to control
[17] = molecular target: Activin receptor type-1 (Homo sapiens) (UniProt Q04771); test: Binding affinity to wild-type human ACVR1 (C188 to C509 residues) expressed in bacterial expression system assessed as residual binding level at 10 uM by Kinomescan method relative to control
[18] = molecular target: Phosphatidylinositol 4-kinase beta (Homo sapiens) (UniProt Q9UBF8); test: Binding affinity to wild-type human full length PIK4CB (M1 to M828 residues) expressed in mammalian expression system assessed as residual binding level at 10 uM by Kinomescan method relative to control
[19] = molecular target: Calcium/calmodulin-dependent protein kinase type II subunit gamma (Homo sapiens) (UniProt Q13555); test: Binding affinity to wild-type human partial length CAMK2G (R9 to A303 residues) expressed in bacterial expression system assessed as residual binding level at 10 uM by Kinomescan method relative to control
MDCK-MDR1 = test: Cytotoxicity against MDCK2-MDR1 cells assessed as reduction in cell viability at 75 uM incubated for 2 hrs by MTT assay; assay type: ADME, cell-based, Canis lupus familiaris; conditions: dog, mdck-mdr1, 2 h
[20] = molecular target: Ephrin type-A receptor 8 (Homo sapiens) (UniProt P29322); test: Binding affinity to wild-type human partial length EPHA8 (Q608 to C920 residues) expressed in bacterial expression system assessed as residual binding level at 10 uM by Kinomescan method relative to control
[21] = molecular target: Peripheral plasma membrane protein CASK (Homo sapiens) (UniProt O14936); test: Binding affinity to wild-type human partial length CASK (M1 to H315 residues) expressed in mammalian expression system assessed as residual binding level at 10 uM by Kinomescan method relative to control
[22] = molecular target: Cyclin-dependent kinase 3 (Homo sapiens) (UniProt Q00526); test: Binding affinity to wild-type human full length CDK3 (M1 to H305 residues) expressed in bacterial expression system assessed as residual binding level at 10 uM by Kinomescan method relative to control
[23] = molecular target: Tyrosine-protein kinase Lyn (Homo sapiens) (UniProt P07948); test: Binding affinity to wild-type human partial length LYN (C219 to Q511 residues) expressed in bacterial expression system assessed as residual binding level at 10 uM by Kinomescan method relative to control
[24] = molecular target: Serine/threonine-protein kinase BRSK1 (Homo sapiens) (UniProt Q8TDC3); test: Binding affinity to wild-type human partial length BRSK1 (M1 to E754 residues) expressed in bacterial expression system assessed as residual binding level at 10 uM by Kinomescan method relative to control
MDR1 [25] = test: in vitro; conditions: dog, MDCK-MDR1; remark: listed apart in the source
Description: Apparent permeability across apical to basolateral side in MDCK2-MDR1 cells by HPLC analysis

Chain of Serine/threonine-protein kinase BRSK1 (Homo sapiens) (Q8TDC3 whole entry, the tested form may be a part): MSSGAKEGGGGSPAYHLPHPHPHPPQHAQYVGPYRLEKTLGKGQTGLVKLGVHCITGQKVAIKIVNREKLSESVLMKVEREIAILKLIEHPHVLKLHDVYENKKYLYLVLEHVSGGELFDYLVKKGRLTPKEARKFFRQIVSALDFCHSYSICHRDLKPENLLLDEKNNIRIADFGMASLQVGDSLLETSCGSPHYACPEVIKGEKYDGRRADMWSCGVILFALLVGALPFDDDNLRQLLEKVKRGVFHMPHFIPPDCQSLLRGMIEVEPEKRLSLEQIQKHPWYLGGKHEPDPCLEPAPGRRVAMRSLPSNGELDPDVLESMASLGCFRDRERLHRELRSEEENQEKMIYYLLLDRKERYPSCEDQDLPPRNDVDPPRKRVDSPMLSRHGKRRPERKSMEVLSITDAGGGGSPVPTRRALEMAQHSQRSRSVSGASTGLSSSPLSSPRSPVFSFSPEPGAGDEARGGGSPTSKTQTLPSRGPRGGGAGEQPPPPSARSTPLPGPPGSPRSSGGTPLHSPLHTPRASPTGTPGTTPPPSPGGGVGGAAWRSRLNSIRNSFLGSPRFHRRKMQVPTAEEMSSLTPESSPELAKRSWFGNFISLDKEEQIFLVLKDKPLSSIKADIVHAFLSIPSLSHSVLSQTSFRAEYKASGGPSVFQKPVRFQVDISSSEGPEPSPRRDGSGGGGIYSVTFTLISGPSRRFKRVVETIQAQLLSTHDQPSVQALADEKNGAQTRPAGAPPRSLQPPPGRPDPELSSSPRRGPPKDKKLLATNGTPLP
Chain of Calcium/calmodulin-dependent protein kinase type II subunit gamma (Homo sapiens) (Q13555 whole entry, the tested form may be a part): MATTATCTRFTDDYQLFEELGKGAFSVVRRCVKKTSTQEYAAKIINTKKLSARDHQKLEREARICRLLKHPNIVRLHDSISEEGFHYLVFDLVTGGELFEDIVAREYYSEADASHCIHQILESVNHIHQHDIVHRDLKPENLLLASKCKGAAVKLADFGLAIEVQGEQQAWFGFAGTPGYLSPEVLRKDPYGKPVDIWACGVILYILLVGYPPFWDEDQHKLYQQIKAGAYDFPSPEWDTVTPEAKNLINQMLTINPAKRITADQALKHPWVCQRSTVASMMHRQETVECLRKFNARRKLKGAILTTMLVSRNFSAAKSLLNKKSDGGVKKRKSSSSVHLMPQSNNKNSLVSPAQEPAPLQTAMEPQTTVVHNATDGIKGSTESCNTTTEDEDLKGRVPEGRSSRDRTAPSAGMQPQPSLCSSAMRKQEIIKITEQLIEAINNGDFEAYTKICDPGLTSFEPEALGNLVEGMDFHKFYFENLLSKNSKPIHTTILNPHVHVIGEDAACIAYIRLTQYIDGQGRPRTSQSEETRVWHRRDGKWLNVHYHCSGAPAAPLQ
Chain of Insulin-like growth factor 1 receptor (Homo sapiens) (P08069 31-736 limits assumed): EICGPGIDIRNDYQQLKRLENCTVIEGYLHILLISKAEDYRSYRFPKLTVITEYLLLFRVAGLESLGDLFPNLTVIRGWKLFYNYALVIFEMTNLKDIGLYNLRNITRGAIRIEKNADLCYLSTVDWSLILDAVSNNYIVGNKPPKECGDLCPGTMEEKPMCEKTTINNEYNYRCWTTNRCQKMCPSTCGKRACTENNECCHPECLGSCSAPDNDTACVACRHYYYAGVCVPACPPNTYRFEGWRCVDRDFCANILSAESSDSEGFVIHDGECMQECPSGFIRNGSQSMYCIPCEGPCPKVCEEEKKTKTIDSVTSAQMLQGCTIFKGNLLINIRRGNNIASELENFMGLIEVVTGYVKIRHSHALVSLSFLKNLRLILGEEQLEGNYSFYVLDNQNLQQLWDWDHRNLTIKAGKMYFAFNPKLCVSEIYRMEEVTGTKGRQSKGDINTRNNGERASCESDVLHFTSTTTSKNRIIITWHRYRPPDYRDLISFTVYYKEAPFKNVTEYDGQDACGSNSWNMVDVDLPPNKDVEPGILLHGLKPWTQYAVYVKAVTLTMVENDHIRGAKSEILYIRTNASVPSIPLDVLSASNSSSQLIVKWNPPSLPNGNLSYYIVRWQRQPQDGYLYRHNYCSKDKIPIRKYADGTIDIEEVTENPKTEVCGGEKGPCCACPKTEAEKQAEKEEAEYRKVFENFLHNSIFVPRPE
Chain of Insulin-like growth factor 1 receptor (Homo sapiens) (P08069 741-1367 limits assumed): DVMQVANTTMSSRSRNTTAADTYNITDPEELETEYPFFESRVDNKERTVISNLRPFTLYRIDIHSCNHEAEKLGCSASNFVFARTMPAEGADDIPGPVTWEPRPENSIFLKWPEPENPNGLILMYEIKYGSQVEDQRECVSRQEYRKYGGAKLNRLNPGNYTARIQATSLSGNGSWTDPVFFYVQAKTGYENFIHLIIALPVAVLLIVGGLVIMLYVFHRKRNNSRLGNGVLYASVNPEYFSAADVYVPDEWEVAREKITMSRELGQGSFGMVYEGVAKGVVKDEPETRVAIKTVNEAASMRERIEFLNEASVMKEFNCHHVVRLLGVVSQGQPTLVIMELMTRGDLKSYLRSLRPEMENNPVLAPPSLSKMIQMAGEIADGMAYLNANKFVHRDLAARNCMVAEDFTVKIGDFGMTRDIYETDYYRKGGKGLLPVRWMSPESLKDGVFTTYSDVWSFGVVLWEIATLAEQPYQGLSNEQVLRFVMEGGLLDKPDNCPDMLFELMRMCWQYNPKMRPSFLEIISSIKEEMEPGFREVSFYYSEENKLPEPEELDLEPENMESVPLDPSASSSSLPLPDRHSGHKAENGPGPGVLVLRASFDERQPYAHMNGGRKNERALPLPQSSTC
Chain of Cyclin-dependent kinase 3 (Homo sapiens) (Q00526 whole entry, looked up, the tested form may be a part): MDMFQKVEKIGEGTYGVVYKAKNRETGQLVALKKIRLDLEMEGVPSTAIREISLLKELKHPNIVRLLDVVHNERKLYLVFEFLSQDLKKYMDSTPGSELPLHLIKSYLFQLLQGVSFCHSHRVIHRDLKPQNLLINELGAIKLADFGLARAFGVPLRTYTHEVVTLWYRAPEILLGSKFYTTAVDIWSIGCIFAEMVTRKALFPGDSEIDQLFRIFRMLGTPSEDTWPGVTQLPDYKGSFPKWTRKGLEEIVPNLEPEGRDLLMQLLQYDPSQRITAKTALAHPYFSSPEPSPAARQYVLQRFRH
Chain of Serine/threonine-protein kinase N1 (Homo sapiens) (Q16512 2-942 limits assumed): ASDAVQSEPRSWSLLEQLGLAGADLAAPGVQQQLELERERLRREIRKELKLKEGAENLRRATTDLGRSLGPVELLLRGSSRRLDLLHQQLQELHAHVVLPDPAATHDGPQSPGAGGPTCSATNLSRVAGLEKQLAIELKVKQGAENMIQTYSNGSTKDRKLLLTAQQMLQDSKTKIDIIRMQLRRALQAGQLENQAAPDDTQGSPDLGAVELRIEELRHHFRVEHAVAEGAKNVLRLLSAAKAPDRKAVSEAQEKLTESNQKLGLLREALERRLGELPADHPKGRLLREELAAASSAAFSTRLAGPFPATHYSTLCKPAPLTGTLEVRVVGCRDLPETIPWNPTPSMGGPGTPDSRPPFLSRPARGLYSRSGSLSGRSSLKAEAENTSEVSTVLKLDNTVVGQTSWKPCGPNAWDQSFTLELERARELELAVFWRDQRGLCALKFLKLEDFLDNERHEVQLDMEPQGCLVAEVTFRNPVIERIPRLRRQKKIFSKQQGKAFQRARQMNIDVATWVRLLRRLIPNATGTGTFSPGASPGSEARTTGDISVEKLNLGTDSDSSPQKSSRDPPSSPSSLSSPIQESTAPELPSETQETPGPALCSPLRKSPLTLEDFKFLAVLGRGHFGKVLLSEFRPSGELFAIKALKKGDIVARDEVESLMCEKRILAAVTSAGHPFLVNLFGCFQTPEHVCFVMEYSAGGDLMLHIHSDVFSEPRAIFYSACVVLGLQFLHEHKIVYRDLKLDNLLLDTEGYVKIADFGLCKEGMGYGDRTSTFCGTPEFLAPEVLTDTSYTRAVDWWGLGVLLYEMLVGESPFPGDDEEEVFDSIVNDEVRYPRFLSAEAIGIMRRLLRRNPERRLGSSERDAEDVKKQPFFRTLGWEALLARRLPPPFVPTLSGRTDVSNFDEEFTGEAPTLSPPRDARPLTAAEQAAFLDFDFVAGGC
Chain of Phosphorylase b kinase gamma catalytic chain, skeletal muscle/heart isoform (Homo sapiens) (Q16816 whole entry, looked up, the tested form may be a part, canonical isoform): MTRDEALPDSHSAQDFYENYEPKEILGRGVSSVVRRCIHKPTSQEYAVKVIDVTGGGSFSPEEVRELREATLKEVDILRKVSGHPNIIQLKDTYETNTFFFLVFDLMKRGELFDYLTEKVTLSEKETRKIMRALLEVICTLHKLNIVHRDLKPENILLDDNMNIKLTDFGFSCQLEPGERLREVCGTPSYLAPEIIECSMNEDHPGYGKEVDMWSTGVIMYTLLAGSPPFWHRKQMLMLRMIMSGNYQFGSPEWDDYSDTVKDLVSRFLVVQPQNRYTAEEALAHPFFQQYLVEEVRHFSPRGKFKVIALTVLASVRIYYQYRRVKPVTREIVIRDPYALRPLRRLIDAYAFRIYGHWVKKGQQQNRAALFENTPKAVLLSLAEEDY
Chain of Tyrosine-protein kinase Lyn (Homo sapiens) (P07948 2-512 limits assumed): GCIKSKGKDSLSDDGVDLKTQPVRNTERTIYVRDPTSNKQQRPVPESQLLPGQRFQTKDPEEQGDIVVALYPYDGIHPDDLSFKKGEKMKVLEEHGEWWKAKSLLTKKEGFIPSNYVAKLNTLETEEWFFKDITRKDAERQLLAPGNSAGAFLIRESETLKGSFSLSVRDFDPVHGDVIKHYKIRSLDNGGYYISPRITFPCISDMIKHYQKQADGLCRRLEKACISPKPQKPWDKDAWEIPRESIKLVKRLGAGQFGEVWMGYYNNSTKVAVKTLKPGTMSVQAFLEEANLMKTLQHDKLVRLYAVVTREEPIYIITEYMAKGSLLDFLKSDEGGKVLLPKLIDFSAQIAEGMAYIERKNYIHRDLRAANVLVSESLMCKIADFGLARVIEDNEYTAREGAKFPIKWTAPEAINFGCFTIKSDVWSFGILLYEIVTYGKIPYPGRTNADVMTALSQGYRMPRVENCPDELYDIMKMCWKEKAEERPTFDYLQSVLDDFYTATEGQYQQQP

In the case of `O=C(Nc1cc(-c2cn(CCNc3c4c(nc5ccccc35)CCCC4)nn2)ccn1)Nc1cccc2c1C1CCCCN1C2=O` (racemic), the Activity [1] is reported as 4%, the IC50 [2] is reported as 16 nM and the Activity [3] is reported as 1.1%. For the same compound, the Activity [4] was 75%, the Activity [5] was 4.5% and the Activity [6] was 53%. The Activity [7] was 95%, the Activity [8] was 13% and the Activity [9] was 100%. It also gave an Activity [10] of 18%, a Papp B→A (MDR1 [11]) of 16.8 ×10⁻⁶ cm/s and an IC50 (NCI-H727) of 2000 nM. It also gave an Activity [12] of 13%, an Activity [13] of 54% and an Activity [14] of 18%. The Activity [15] was 100%, the Activity [16] was 100% and the Activity [17] was 49%. The Activity [18] was 28%, the Activity [19] was 64% and the Activity (MDCK-MDR1) was “Non-Toxic”. For the same compound, the Activity [20] was 80%, the Activity [21] was 65% and the Activity [22] was 90%. The Activity [23] was 83%, the Activity [24] was 66% and the Papp A→B (MDR1 [25]) was 11.1 ×10⁻⁶ cm/s.
